Experimental findings from ChEMBL document CHEMBL1201862, “PubChem BioAssay data set” (2004) are described below.

Some test systems named below: A549; MCF7; LOX IMVI; EKVX; SK-OV-3; DU-145; SF-268; SN12C; MOLT-4; TK-10; SK-MEL-28; SW-620; SR; BT-549; NCI/ADR-RES; 786-0; MDA-N; SF-295; HOP-62; CCRF-CEM.
Common to all, as to assay: DTP human tumour cell line panel, 48 h

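Results reflect a 48-hour exposure of cells in 96-well plates to compound at five concentrations. Abbreviation: GI50, concentration required for 50% inhibition of growth.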 The source made the active and inactive calls. Rule as the data show it: active = GI50 up to about 1.1 µM and inactive = higher. A value given as a limit tells only on which side of the number the result lay.

For orientation: GI50 means the concentration giving 50% growth inhibition. As to `CSc1c(C#N)c(O)n(-c2ccc(Cl)cc2)c(=O)c1C#N`, the GI50 is 80.4 µM (inactive) in the assay on A549; 64.6 µM (inactive) in the assay with MCF7; 14 µM (inactive) in the assay with LOX IMVI; > 100 µM (inactive) in the assay on EKVX; > 100 µM (inactive) with SK-OV-3; > 100 µM (inactive) with DU-145. Further, the GI50 was > 100 µM (inactive) with SF-268; > 100 µM (inactive) in the assay with SN12C; 76.4 µM (inactive) in the assay with MOLT-4; > 100 µM (inactive) in the assay on TK-10; > 100 µM (inactive) in the assay with SK-MEL-28; 61 µM (inactive) in the assay with SW-620. The GI50 was > 100 µM (inactive) in the assay on SR; > 100 µM (inactive) in the assay on BT-549; 77.3 µM (inactive) with NCI/ADR-RES; > 100 µM (inactive) with 786-0; > 100 µM (inactive) in the assay with MDA-N.
Consider `N#CCCN(CCC#N)c1ccc(C(/N=N/c2ccccc2)=N\c2ccccc2)cc1`, for which the GI50 in the assay with A549, with MCF7, in the assay with EKVX, with SK-OV-3, in the assay on DU-145 and in the assay with SF-268 was > 100 µM (inactive) in each case. The GI50 with SN12C, in the assay on MOLT-4, in the assay on SF-295, with TK-10, with SK-MEL-28 and in the assay with SW-620 was > 100 µM (inactive) each time. The GI50 is > 100 µM (inactive) with SR; > 100 µM (inactive) in the assay with HOP-62; 13 µM (inactive) in the assay on BT-549; > 100 µM (inactive) in the assay with NCI/ADR-RES; > 100 µM (inactive) with CCRF-CEM; > 100 µM (inactive) in the assay on 786-0. Besides, the GI50 in the assay on MDA-N was > 100 µM (inactive).
In the case of `Cc1nc2ccc(C(F)(F)F)cc2nc1NCc1ccc(Cl)c(Cl)c1`, the GI50 with A549 was 16.4 µM (inactive); with MCF7, 10 µM (inactive); in the assay with LOX IMVI, 15.3 µM (inactive); in the assay on EKVX, 14.1 µM (inactive); in the assay on DU-145 it was 17.9 µM (inactive); in the assay with SF-268 it was 16 µM (inactive). Besides, the GI50 is 17.2 µM (inactive) with SN12C; 15.6 µM (inactive) with MOLT-4; 17.3 µM (inactive) in the assay on SF-295; < 0.01 µM (active) in the assay on TK-10; 18.4 µM (inactive) with SK-MEL-28; 18.9 µM (inactive) with SW-620. The GI50 in the assay with SR is 14.8 µM (inactive); in the assay on HOP-62 it was 14.4 µM (inactive); in the assay with BT-549, 20.2 µM (inactive); in the assay on NCI/ADR-RES it was 19.9 µM (inactive); with CCRF-CEM, 15.5 µM (inactive); in the assay on 786-0, 16.6 µM (inactive). Also, in the assay on MDA-N, the GI50 is 17.3 µM (inactive).
`CN(C)Cc1cc(C(=O)/C=C/c2ccc([N+](=O)[O-])cc2)cc(CN(C)C)c1O`: the GI50 with A549 was 22.7 µM (inactive); in the assay on MCF7, 13.3 µM (inactive); with LOX IMVI it was 2.24 µM (inactive); in the assay with EKVX it was 12.8 µM (inactive); in the assay with DU-145, 11 µM (inactive); in the assay on SF-268, 16 µM (inactive). Further, the GI50 with SN12C is 7.8 µM (inactive); with MOLT-4, 18.9 µM (inactive); in the assay on SF-295, 22.3 µM (inactive); in the assay on TK-10, 16 µM (inactive); in the assay on SW-620, 10.3 µM (inactive); in the assay with SR it was 4.12 µM (inactive). Also, the GI50 in the assay with HOP-62 is 3.72 µM (inactive); in the assay on BT-549, 13.6 µM (inactive); in the assay on NCI/ADR-RES, 26.7 µM (inactive); with CCRF-CEM it was 3.3 µM (inactive); with 786-0, 2.31 µM (inactive); in the assay on MDA-N, 11.7 µM (inactive).
Take `S=C(CSc1ccccc1)Nc1cccc2ccccc12`: the GI50 was 42 µM (inactive) with A549; 33.8 µM (inactive) with MCF7; 50.6 µM (inactive) in the assay on LOX IMVI; 58.9 µM (inactive) with EKVX; > 100 µM (inactive) in the assay on SK-OV-3; > 100 µM (inactive) in the assay with DU-145. Also, the GI50 is 61.1 µM (inactive) in the assay with SF-268; 45.7 µM (inactive) in the assay with SN12C; 21.6 µM (inactive) in the assay on MOLT-4; 23.8 µM (inactive) in the assay on SF-295; 36.3 µM (inactive) with TK-10; > 100 µM (inactive) in the assay on SK-MEL-28. For the same molecule, the GI50 in the assay on SW-620 was 55 µM (inactive); with SR it was 22.5 µM (inactive); with HOP-62 it was 77.3 µM (inactive); in the assay on BT-549, 51.6 µM (inactive); with NCI/ADR-RES, 46 µM (inactive); with 786-0, 41.7 µM (inactive). Moreover, in the assay with MDA-N, the GI50 was 40.7 µM (inactive).
In the case of `Cc1c2c(c(C)c3c[n+](C)ccc13)Oc1ccccc1O2`, the GI50 with A549 was 1.84 µM (inactive); with MCF7, 9.12 µM (inactive); in the assay on LOX IMVI it was 22.3 µM (inactive); in the assay on EKVX it was 9.44 µM (inactive); in the assay on SK-OV-3, 23.5 µM (inactive); with DU-145 it was 22.9 µM (inactive). Also, the GI50 with SF-268 is 1.64 µM (inactive); in the assay on SN12C, 1.77 µM (inactive); with MOLT-4 it was 3.02 µM (inactive); in the assay on SF-295, 5.69 µM (inactive); in the assay on TK-10, 50.9 µM (inactive); in the assay with SK-MEL-28, 13.7 µM (inactive). For the same molecule, the GI50 is 16.9 µM (inactive) in the assay with SW-620; 8.89 µM (inactive) in the assay with HOP-62; 2.67 µM (inactive) in the assay on BT-549; > 100 µM (inactive) in the assay on NCI/ADR-RES; 3.87 µM (inactive) in the assay on CCRF-CEM; 6.62 µM (inactive) in the assay with 786-0. Also, in the assay on MDA-N, the GI50 was 18.6 µM (inactive).
As for `COC(=O)[C@@H]1COC(=O)N1`, the GI50 in the assay with A549, in the assay on MCF7, in the assay on LOX IMVI, in the assay with EKVX, in the assay on SK-OV-3 and in the assay with DU-145 was > 100 µM (inactive) throughout. Besides, the GI50 with SF-268, with SN12C, in the assay with MOLT-4, in the assay on SF-295, in the assay on TK-10 and with SK-MEL-28 was > 100 µM (inactive) each time. Moreover, the GI50 with SW-620, in the assay with HOP-62, in the assay with BT-549, in the assay with NCI/ADR-RES, with CCRF-CEM and in the assay with 786-0 was > 100 µM (inactive) in each case. The GI50 in the assay on MDA-N is > 100 µM (inactive).
On to `NC1=CN(Cc2ccccc2)C2=N/C(=C\c3ccco3)C(=O)N12`, for which the GI50 in the assay on A549, with MCF7, in the assay on LOX IMVI, in the assay on EKVX, in the assay on SK-OV-3 and in the assay on DU-145 was > 100 µM (inactive) in each case. Also, the GI50 with SF-268, in the assay with SN12C, with MOLT-4, in the assay with SF-295, in the assay with TK-10 and in the assay with SK-MEL-28 was > 100 µM (inactive) in each case. The GI50 in the assay on SW-620, in the assay with HOP-62, in the assay with BT-549, with NCI/ADR-RES, in the assay on CCRF-CEM and with 786-0 was > 100 µM (inactive) in each case. Moreover, in the assay on MDA-N, the GI50 is > 100 µM (inactive).
As for `O=C(N/N=C(COc1ccccc1)\N=C\c1cccnc1)c1ccncc1`, the GI50 in the assay on A549, in the assay on MCF7, with LOX IMVI, in the assay on EKVX, with SK-OV-3 and with DU-145 was > 100 µM (inactive) in each case. Also, the GI50 with SF-268, in the assay on SN12C, in the assay on MOLT-4, in the assay with SF-295, in the assay on TK-10 and with SK-MEL-28 was > 100 µM (inactive) throughout. Further, the GI50 in the assay with SW-620 was > 100 µM (inactive); in the assay on HOP-62 it was 59.6 µM (inactive); in the assay on BT-549, > 100 µM (inactive); in the assay with NCI/ADR-RES, > 100 µM (inactive); in the assay with CCRF-CEM, > 100 µM (inactive); in the assay on 786-0, > 100 µM (inactive). Moreover, the GI50 in the assay with MDA-N was > 100 µM (inactive).
Consider `C[N+]1(C)CC[N+](C)(C)[BH-]1C(O)O`, for which the GI50 in the assay on A549, with MCF7, in the assay on LOX IMVI, in the assay on EKVX, in the assay on DU-145 and in the assay on SF-268 was > 100 µM (inactive) each time. The GI50 in the assay on SN12C, in the assay with MOLT-4, with SF-295, in the assay on TK-10, in the assay on SK-MEL-28 and in the assay on SW-620 was > 100 µM (inactive) each time. For the same molecule, the GI50 in the assay with SR, with HOP-62, in the assay with BT-549, in the assay on NCI/ADR-RES, with CCRF-CEM and in the assay on 786-0 was > 100 µM (inactive) throughout. For the same molecule, the GI50 in the assay with MDA-N is > 100 µM (inactive).
With `COC(=O)c1sc(=S)sc1SCc1ccc(CSc2sc(=S)sc2C(=O)OC)cc1`, the GI50 in the assay with A549, in the assay with MCF7, in the assay with LOX IMVI, in the assay with EKVX, in the assay on SK-OV-3 and in the assay on DU-145 was > 100 µM (inactive) in each case. For the same molecule, the GI50 with SF-268, in the assay on SN12C, with MOLT-4, in the assay with SF-295, in the assay with TK-10 and with SK-MEL-28 was > 100 µM (inactive) each time. In addition, the GI50 in the assay on SW-620, in the assay on HOP-62, with BT-549, in the assay with NCI/ADR-RES, in the assay with CCRF-CEM and with 786-0 was > 100 µM (inactive) in each case. Besides, in the assay with MDA-N, the GI50 was > 100 µM (inactive).
